Measurements taken from article PMC12719775, “Alexidine is a TAZ-specific small-molecule inhibitor that suppresses breast cancer invasion and metastasis” (iScience, 2025).

What was measured:
Type in all cases: biochemical
[1] = biological target: T1, GST-TAZ / Venus-Flag-TEAD1 (VF-TEAD1) (Homo sapiens, UniProt Q9GZV5); assay: GST pull-down with western blot densitometry; conditions: HEK293T lysate, 18 h at 4 °C; protein-protein interaction inhibition
T1 construct: gene WWTR1; with Transcriptional enhancer factor TEF-1
T1 sequence (Q9GZV5 whole entry): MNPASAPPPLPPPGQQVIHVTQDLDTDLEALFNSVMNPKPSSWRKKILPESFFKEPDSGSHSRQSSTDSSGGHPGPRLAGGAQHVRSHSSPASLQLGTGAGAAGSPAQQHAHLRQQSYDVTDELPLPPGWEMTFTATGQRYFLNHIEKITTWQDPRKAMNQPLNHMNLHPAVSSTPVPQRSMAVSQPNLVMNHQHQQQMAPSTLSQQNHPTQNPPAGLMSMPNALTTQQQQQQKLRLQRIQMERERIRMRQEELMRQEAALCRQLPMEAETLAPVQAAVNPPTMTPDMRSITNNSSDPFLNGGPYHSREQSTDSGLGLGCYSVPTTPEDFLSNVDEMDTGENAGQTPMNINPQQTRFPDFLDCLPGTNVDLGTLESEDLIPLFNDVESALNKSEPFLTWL
T1 sequence (P28347 whole entry partner): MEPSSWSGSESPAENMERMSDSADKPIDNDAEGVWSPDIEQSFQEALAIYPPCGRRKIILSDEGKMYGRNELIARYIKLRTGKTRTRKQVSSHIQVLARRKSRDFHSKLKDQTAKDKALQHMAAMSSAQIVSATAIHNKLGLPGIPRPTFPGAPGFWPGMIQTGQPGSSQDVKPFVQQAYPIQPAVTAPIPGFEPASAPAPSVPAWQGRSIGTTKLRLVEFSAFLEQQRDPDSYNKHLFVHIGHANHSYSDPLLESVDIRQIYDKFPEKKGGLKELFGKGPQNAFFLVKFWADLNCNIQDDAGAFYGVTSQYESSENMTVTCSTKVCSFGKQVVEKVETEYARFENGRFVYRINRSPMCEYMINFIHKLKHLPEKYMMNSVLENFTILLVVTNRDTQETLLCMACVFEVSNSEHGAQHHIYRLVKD

TAZ = biological target: T2, TAZ (Homo sapiens, UniProt Q9GZV5); assay: cellular thermal shift assay (CETSA) with western blot; conditions: 100 μM alexidine, 4 h at 4 °C, HEK293T lysate, heated 25-60 °C; destabilising shift
T2 construct: gene WWTR1; endogenous full-length TAZ in HEK293T freeze-thaw lysate (Methods: endogenous)
T2 sequence (Q9GZV5 whole entry): as the sequence (Q9GZV5 whole entry) above

[2] = biological target: T3, TAZ-TEAD biosensor (FLAG-SmBiT-TAZ / His-LgBiT-TEAD1) (Homo sapiens, UniProt Q9GZV5); assay: TR-FRET dose response (anti-FLAG-Tb / anti-His-D2), disruption of TAZ-TEAD1 interaction; conditions: HEK293T lysate, 18 h; protein-protein interaction inhibition
T3 construct: gene WWTR1; FLAG-SmBiT-TAZ aa 13-119 and His-LgBiT-TEAD1 aa 194-411 co-expressed in HEK293T; cell lysate; tags kept; with Transcriptional enhancer factor TEF-1
T3 sequence (Q9GZV5 13-119): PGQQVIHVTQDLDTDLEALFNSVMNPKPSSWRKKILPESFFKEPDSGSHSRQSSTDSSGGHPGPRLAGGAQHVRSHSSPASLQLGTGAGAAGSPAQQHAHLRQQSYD
T3 sequence (P28347 209-426 partner): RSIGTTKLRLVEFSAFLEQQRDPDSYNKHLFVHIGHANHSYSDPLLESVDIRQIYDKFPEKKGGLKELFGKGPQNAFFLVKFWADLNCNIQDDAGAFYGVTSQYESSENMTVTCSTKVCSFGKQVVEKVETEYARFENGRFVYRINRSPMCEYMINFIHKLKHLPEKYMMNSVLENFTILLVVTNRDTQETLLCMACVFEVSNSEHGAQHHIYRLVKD

With `CCCCC(CC)CNC(=N)NC(=N)NCCCCCCNC(=N)NC(=N)NCC(CC)CCCC` (stereo not drawn) [alexidine] the “% PPI signal” value [1] was “inhibition of GST-TAZ and VF-TEAD1 interaction was achieved by alexidine treatment”, the Tm (TAZ) was “A reduction in TAZ rather than TEAD stability and melting temperature (Tm) was observed” and the TR-FRET signal [2] was “alexidine disrupted TAZ- TEAD PPI in a dose-dependent manner”.
